For experiment [1], the system named is Escherichia coli. Briefly: In vitro antibacterial activity of compound was measured against gram negative Escherichia coli K12. The class given is functional.
The subject of experiment [2] is Mycobacterium tuberculosis. Briefly: In vitro antibacterial activity of compound was measured against gram positive Mycobacterium tuberculosis Ravenel(bovin). Format: functional.
In experiment [3] the test system is Streptococcus pneumoniae. Briefly: In vitro antibacterial activity of compound was measured against gram positive Streptococcus pneumoniae. Format: functional.
Experiment [4] deals with Mycobacterium tuberculosis. Briefly: In vitro antibacterial activity of compound was measured against gram positive Mycobacterium tuberculosis H37Rv (human). Format: functional.
For experiment [5], the system named is Bacillus subtilis. Briefly: In vitro antibacterial activity of compound was measured against gram positive Bacillus subtilis ATCC 6633. The class given is functional.
The subject of experiment [6] is Streptococcus pyogenes. In words: In vitro antibacterial activity of compound was measured against gram positive Streptococcus pyogenes A 115 ROBB. Format: functional.
Experiment [7] has as its system Serratia marcescens. Briefly: In vitro antibacterial activity of compound was measured against gram negative Serratia marcescens. The class given is functional.
Experiment [8] deals with Pseudomonas aeruginosa. Briefly: In vitro antibacterial activity of compound was measured against gram negative Pseudomonas pyocyanea NCTC 10490. Format: functional, pseudomona pyocyanea.
The test system of experiment [9] is Alcaligenes faecalis. In words: In vitro antibacterial activity of compound was measured against gram negative Alcaligenes faecalis 140001. Format: functional.
The subject of experiment [10] is Acinetobacter calcoaceticus subsp. anitratus. In words: In vitro antibacterial activity of compound was measured against gram negative Acinetobacter anitratus 150001. Format: functional.
For experiment [11], the system named is Staphylococcus aureus. In words: In vitro antibacterial activity of compound was measured against gram positive Staphylococcus aureus 1110 pen.rez. Format: functional.
Experiment [12] has as its system Enterococcus faecalis. Briefly: In vitro antibacterial activity of compound was measured against gram positive Streptococcus faecalis. Format: functional.
The test system of experiment [13] is Proteus inconstans. In words: In vitro antibacterial activity of compound was measured against gram negative Proteus inconstans NCTC 8055. Format: functional. To be noted: Providencia alcalifaciens.
The subject of experiment [14] is Bacteroides fragilis. In words: In vitro antibacterial activity of compound was measured against gram negative Bacteroides fragilis ATCC 25285. The class given is functional.
Experiment [15] has as its system Clostridium perfringens. In words: In vitro antibacterial activity of compound was measured against gram positive Clostridium perfringens 70500. The class given is functional.
The subject of experiment [16] is Salmonella typhimurium. Briefly: In vitro antibacterial activity of compound was measured against gram negative Salmonella Typhimurium 51. Format: functional, Salmonella enterica subsp. enterica serovar Typhimurium. Particulars: Salmonella enterica.
Experiment [17] relates to Escherichia coli. Briefly: In vitro antibacterial activity of compound was measured against gram negative Escherichia coli 6R. The class given is functional.
For experiment [18], the system named is Klebsiella pneumoniae. Briefly: In vitro antibacterial activity of compound was measured against gram negative Klebsiella pneumoniae ATCC 10031. Format: functional.
The test system of experiment [19] is Streptococcus pyogenes. Briefly: In vitro antibacterial activity of compound was measured against gram positive Streptococcus pyogenes A 118. The class given is functional.
In experiment [20] the test system is Proteus vulgaris. In words: In vitro antibacterial activity of compound was measured against gram negative Proteus vulgaris XL. Format: functional.
Experiment [21] deals with Staphylococcus aureus. In words: In vitro antibacterial activity of compound was measured against gram positive Staphylococcus aureus SMITH. Format: functional.
In experiment [22] the test system is Bordetella bronchiseptica. In words: In vitro antibacterial activity of compound was measured against gram negative Bordetella bronchiseptica ATCC 4617. The class given is functional.
Experiment [23] has as its system Shigella sonnei. Briefly: In vitro antibacterial activity of compound was measured against gram negative Shigella sonnei. The class given is functional.

These results are taken from ChEMBL document CHEMBL1129105, “Synthesis and biological evaluation of N-(1-aziridino)-6-fluoro-quinolone-3-carboxylic acids” (1996).

Values after ≈ are worked out from the molar mass of the structure shown.

For the compound `CN1CCN(c2c(F)cc3c(=O)c(C(=O)O)cn(N4CC4c4ccccc4)c3c2F)CC1` (stereo not drawn), the MIC (in general, the least concentration at which growth counts as inhibited) in [1] was found to be 25 µg/mL (≈ 56.8 µM); in [2], 50 µg/mL (≈ 114 µM); in [3], 25 µg/mL (≈ 56.8 µM); in experiment [4], 100 µg/mL (≈ 227 µM); in experiment [5], 100 µg/mL (≈ 227 µM); in [6], 50 µg/mL (≈ 114 µM). Also, the MIC in experiment [7] is 50 µg/mL (≈ 114 µM); in experiment [8], over 100 µg/mL; in experiment [9], over 100 µg/mL; in [10], over 100 µg/mL; in experiment [11], 100 µg/mL (≈ 227 µM); in [12], over 100 µg/mL. The MIC was 50 µg/mL (≈ 114 µM) in experiment [13]; over 100 µg/mL in [14]; 100 µg/mL (≈ 227 µM) in experiment [15]; 25 µg/mL (≈ 56.8 µM) in experiment [16]; over 100 µg/mL in [17]; 12.5 µg/mL (≈ 28.4 µM) in experiment [18]. Further, the MIC in experiment [19] is over 100 µg/mL; in [20] it was 25 µg/mL (≈ 56.8 µM); in [21], 100 µg/mL (≈ 227 µM); in experiment [22], 100 µg/mL (≈ 227 µM); in experiment [23], 6.2 µg/mL (≈ 14.1 µM).
